Activity calls are given as the source filed them.
What was measured:
Assay type in all cases: functional
[1] = molecular target: T1, Replicative DNA helicase DnaB (Mycobacterium tuberculosis, UniProt P9WMR3); test: DnaB intein splicing inhibitors, dose response, biochemical, cell-free fluorescence (AID 449749)
T1 sequence (P9WMR3 whole entry): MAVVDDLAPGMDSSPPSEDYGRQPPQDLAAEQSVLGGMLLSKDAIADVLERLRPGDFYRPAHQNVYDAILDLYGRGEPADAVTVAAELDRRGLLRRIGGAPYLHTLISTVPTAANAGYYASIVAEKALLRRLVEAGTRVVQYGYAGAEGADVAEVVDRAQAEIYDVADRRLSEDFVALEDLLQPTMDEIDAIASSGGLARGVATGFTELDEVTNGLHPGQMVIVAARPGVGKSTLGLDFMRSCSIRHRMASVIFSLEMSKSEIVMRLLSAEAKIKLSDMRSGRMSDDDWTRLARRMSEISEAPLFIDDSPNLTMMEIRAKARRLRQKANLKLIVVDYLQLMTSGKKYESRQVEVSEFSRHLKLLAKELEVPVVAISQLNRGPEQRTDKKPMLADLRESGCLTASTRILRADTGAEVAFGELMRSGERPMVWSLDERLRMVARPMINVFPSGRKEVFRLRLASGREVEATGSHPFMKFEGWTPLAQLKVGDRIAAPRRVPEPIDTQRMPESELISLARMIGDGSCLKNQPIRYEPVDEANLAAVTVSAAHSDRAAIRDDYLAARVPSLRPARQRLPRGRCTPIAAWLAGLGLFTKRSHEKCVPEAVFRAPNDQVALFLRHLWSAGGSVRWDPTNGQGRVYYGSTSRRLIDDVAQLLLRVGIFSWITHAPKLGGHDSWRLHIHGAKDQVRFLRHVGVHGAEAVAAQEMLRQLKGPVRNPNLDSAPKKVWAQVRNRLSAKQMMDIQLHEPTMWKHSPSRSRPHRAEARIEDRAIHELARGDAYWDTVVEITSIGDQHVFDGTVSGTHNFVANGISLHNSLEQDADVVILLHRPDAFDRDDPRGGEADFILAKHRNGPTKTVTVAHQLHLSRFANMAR

Protein RecA = molecular target: T2, Protein RecA (Mycobacterium tuberculosis, UniProt P9WHJ3); test: Fluorescence Cell-Free Homogeneous Dose Retest to Identify Inhibitors of RecA-Intein Splicing Activity. [Related pubchem assays (depositor defined):AID2097, AID2223, AID489010, AID492950]
T2 sequence (P9WHJ3 whole entry): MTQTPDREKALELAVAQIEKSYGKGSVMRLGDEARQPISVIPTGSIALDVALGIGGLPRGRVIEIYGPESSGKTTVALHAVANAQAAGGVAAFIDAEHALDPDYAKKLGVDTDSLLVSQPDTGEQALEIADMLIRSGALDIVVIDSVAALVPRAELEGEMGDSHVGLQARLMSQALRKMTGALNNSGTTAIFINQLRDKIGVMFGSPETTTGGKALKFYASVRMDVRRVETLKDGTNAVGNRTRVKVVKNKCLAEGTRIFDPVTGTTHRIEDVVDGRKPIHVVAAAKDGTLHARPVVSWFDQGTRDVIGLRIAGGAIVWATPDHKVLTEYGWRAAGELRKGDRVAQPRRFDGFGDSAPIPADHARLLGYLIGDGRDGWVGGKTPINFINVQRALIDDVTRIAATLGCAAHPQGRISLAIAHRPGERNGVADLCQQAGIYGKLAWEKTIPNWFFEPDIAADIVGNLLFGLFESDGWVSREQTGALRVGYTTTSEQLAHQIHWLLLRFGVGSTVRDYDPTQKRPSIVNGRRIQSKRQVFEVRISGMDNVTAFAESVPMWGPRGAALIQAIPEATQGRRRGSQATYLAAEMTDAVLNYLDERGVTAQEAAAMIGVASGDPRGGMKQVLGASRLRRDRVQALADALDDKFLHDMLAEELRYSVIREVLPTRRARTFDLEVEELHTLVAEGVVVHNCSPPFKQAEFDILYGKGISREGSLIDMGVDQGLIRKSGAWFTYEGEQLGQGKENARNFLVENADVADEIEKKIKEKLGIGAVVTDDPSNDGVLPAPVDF

[2] = molecular target: T3, Sentrin-specific protease 7 (Homo sapiens, UniProt Q9BQF6);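 note: Luminescence-based dose-response confirmation of ultra-high-throughput screening hits, measuring inhibition of SENP7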
T3 sequence (Q9BQF6 whole entry): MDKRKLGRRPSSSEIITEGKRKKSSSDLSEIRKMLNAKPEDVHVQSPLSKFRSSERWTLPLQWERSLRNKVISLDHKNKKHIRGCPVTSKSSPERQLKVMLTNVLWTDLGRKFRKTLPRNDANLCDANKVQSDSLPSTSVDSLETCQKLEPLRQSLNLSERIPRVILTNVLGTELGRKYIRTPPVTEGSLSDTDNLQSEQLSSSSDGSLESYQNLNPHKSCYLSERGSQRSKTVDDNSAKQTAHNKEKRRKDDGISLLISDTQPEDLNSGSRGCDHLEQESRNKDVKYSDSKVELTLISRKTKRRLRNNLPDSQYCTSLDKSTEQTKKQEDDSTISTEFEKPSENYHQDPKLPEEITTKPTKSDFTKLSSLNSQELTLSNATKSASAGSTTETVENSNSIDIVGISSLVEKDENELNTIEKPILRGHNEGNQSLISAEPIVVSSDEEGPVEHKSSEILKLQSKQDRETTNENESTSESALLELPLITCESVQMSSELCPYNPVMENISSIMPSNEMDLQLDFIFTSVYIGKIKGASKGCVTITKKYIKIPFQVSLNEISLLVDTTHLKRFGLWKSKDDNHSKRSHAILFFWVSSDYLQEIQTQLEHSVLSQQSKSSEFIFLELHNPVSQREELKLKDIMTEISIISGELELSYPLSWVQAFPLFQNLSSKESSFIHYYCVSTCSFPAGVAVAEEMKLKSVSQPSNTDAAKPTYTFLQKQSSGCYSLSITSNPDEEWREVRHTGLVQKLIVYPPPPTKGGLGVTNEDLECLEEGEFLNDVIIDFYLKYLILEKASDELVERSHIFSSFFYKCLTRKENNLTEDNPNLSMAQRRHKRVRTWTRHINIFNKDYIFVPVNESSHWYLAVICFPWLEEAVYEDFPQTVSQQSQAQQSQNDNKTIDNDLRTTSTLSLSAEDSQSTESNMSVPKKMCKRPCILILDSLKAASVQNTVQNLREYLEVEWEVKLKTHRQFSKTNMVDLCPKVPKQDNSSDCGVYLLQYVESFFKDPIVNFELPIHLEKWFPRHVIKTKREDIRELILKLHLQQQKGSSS

SMILES | AC50 [1] | EC50 (Protein RecA) | IC50 [2]
CC1CC(C)CN(C(=O)c2ccc3c(c2NCCO)C(=O)c2ccccc2C3=O)C1 (stereo not given) | 14.5 µM (active) | 20 µM (active) | 
CCC(=O)N(C1=C(NC)C(=O)c2ccccc2C1=O)C(C)C | 24.5 µM (active) | 9.21 µM (active) | 33.2 µM (active)

— ChEMBL document CHEMBL1201862, “PubChem BioAssay data set” (2004)
